# Data published in the Kinase Knowledgebase extract (Sharma et al. 2016).
# pIC50: −log10 of the molar value.
# Target: PIK3CD (Human) (UniProt O00329)
# Assay: Enzyme Assay
# Chain of PIK3CD (Human) (O00329 whole entry, looked up): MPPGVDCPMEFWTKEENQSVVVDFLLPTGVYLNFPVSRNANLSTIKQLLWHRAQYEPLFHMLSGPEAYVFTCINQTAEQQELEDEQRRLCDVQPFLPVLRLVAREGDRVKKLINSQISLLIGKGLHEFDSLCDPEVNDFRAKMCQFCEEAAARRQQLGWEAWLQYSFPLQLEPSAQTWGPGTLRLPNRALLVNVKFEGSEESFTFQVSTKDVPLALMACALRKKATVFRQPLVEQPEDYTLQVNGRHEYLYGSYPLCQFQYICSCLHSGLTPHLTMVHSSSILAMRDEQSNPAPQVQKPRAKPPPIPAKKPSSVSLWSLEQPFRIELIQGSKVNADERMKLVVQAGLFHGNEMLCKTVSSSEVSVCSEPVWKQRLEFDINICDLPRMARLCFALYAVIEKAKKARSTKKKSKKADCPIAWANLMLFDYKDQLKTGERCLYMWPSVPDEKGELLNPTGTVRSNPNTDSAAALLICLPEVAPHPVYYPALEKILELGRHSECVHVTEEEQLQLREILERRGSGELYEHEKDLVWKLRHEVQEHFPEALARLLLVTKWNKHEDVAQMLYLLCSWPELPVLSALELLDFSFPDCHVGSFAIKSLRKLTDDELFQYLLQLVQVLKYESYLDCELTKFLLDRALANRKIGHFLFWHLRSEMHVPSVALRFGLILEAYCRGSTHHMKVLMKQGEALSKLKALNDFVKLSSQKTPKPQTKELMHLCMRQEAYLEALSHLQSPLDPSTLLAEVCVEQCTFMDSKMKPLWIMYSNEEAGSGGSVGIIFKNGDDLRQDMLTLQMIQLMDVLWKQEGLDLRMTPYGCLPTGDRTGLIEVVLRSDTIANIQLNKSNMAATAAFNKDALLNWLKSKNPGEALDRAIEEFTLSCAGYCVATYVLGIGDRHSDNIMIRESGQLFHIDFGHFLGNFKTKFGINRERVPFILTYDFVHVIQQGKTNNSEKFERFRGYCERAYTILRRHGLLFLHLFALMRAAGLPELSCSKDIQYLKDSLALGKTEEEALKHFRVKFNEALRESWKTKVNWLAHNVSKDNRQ
row,pIC50,SMILES
1,7.30 to 8.00,CC[C@H](Nc1nc(N)nc(N)c1C#N)c1nc2c(F)ccc(F)c2c(=O)n1-c1cc(F)cc(F)c1
2,7.30 to 8.00,C[C@H](Nc1nc(N)nc(N)c1C#N)c1nc2cc(F)c(F)cc2c(=O)n1-c1cc(F)cc(F)c1
3,7.30 to 8.00,CC[C@H](Nc1nc(N)nc(N)c1C#N)c1nc2c(F)cc(F)cc2c(=O)n1-c1cc(F)cc(F)c1
4,≥ 9.00,C[C@H](Nc1nc(N)nc(N)c1C#N)c1nc2cccc(Cl)c2c(=O)n1-c1cc(F)cc(C(F)F)c1
5,8.00 to 9.00,C[C@H](Nc1nc(N)nc(N)c1C#N)c1nc2cccc(Cl)c2c(=O)n1-c1cc(F)cc(Cl)c1
6,8.00 to 9.00,C[C@H](Nc1nc(N)nc(N)c1C#N)c1nc2cccc(Cl)c2c(=O)n1-c1cc(C(F)F)cc(C(F)F)c1
7,≥ 9.00,C[C@H](Nc1nc(N)nc(N)c1C(N)=O)c1nc2cccc(Cl)c2c(=O)n1-c1ccccc1
8,8.00 to 9.00,C[C@H](Nc1nc(N)nc(N)c1C#N)c1nc2cccc(Cl)c2c(=O)n1-c1cccc(C#N)c1
9,≥ 9.00,C[C@H](Nc1nc(N)nc(N)c1C#N)c1nc2cccc(Cl)c2c(=O)n1-c1cccc(C(F)F)c1
10,8.00 to 9.00,C[C@H](Nc1nc(N)nc(N)c1C#N)c1nc2cccc(Cl)c2c(=O)n1-c1cc(F)cc(OC(F)(F)F)c1
11,8.00 to 9.00,CC[C@H](Nc1nc(N)nc(N)c1C#N)c1nc2cccc(F)c2c(=O)n1-c1cc(F)cc(F)c1
12,8.00 to 9.00,Cc1cccc2nc([C@H](C)Nc3nc(N)nc(N)c3C#N)n(-c3cc(F)cc(C#N)c3)c(=O)c12
13,7.30 to 8.00,C[C@H](Nc1nc(N)nc(N)c1C#N)c1nc2c(C(F)F)cccc2c(=O)n1-c1cc(F)cc(F)c1
14,8.00 to 9.00,C[C@H](Nc1nc(N)nc(N)c1C#N)c1nc2cccc(F)c2c(=O)n1-c1cccc(F)c1
15,7.30 to 8.00,C[C@H](Nc1nc(N)nc(N)c1C#N)c1nc2ccccc2c(=O)n1-c1cc(F)cc(F)c1
16,8.00 to 9.00,C[C@H](Nc1nc(N)nc(N)c1Cl)c1nc2c(F)ccc(Cl)c2c(=O)n1-c1ccccc1
17,8.00 to 9.00,C[C@H](Nc1nc(N)nc(N)c1C#N)c1nc2ccc(F)cc2c(=O)n1-c1ccccc1
18,≥ 9.00,C[C@H](Nc1nc(N)nc(N)c1C#N)c1nc2cccc(Br)c2c(=O)n1-c1ccccc1
19,≥ 9.00,C[C@H](Nc1nc(N)nc(N)c1C#N)c1nc2c(F)ccc(F)c2c(=O)n1-c1ccccc1
20,8.00 to 9.00,CC(C)c1cccc(-n2c([C@H](C)Nc3nc(N)nc(N)c3C#N)nc3cccc(Cl)c3c2=O)c1
21,7.30 to 8.00,CC(C)C[C@H](Nc1nc(N)nc(N)c1C#N)c1nc2cccc(Cl)c2c(=O)n1-c1cccc(C#N)c1
22,7.30 to 8.00,Cc1cccc2c(=O)n(-c3cccc(C(F)(F)F)c3)c([C@H](C)Nc3nc(N)nc(N)c3C#N)nc12

row,pIC50,SMILES
1,8.00 to 9.00,Cc1cccc2c(=O)n(-c3ccccc3)c([C@H](C)Nc3nc(N)nc(N)c3C#N)nc12
2,8.00 to 9.00,CC[C@H](Nc1nc(N)nc(N)c1C#N)c1nc2ccc(F)cc2c(=O)n1-c1cccc(F)c1
3,7.30 to 8.00,COc1cccc2nc([C@H](C)Nc3nc(N)nc(N)c3C#N)n(-c3ccccc3)c(=O)c12
4,8.00 to 9.00,COc1cc(C(F)F)cc(-n2c([C@H](C)Nc3nc(N)nc(N)c3C#N)nc3cccc(Cl)c3c2=O)c1
5,8.00 to 9.00,C[C@H](Nc1nc(N)nc(N)c1C#N)c1nc2cccc(S(C)(=O)=O)c2c(=O)n1-c1cccc(F)c1
6,7.30 to 8.00,C[C@H](Nc1nc(N)nc(N)c1C#N)c1nc2cccc(F)c2c(=O)n1-c1cc(F)cc(C#N)c1
7,≥ 9.00,CC[C@H](Nc1nc(N)nc(N)c1C#N)c1nc2cccc(C)c2c(=O)n1-c1cc(F)cc(F)c1
8,≥ 9.00,C[C@H](Nc1nc(N)nc(N)c1C#N)c1nc2cccc(Cl)c2c(=O)n1-c1ccccc1
9,7.30 to 8.00,C[C@H](Nc1nc(N)nc(N)c1C#N)c1nc2ccc(F)c(F)c2c(=O)n1-c1cc(F)cc(F)c1
10,8.00 to 9.00,Cc1ccc(Cl)c2c(=O)n(-c3cc(F)cc(F)c3)c([C@H](C)Nc3nc(N)nc(N)c3C#N)nc12
11,7.30 to 8.00,C[C@H](Nc1nc(N)nc(N)c1C#N)c1nc2ccc(F)c(Cl)c2c(=O)n1-c1cc(F)cc(C(F)F)c1
12,8.00 to 9.00,C[C@H](Nc1ncnc(N)c1C#N)c1nc2cccc(Cl)c2c(=O)n1-c1cc(F)cc(F)c1
13,8.00 to 9.00,C[C@H](Nc1nc(N)nc(N)c1C#N)c1nc2cccc(Cl)c2c(=O)n1-c1c(F)cccc1F
14,7.30 to 8.00,C[C@H](Nc1nc(N)nc(N)c1C#N)c1nc2cccc(C#N)c2c(=O)n1-c1cc(F)cc(C(F)F)c1
15,8.00 to 9.00,CC[C@H](Nc1nc(N)nc(N)c1C#N)c1nc2c(F)ccc(F)c2c(=O)n1-c1ccccc1
16,7.30 to 8.00,CC[C@H](Nc1nc(N)nc(N)c1C#N)c1nc2cccc(F)c2c(=O)n1-c1cc(F)cc(C(F)F)c1
17,7.30 to 8.00,COc1cc(-n2c([C@H](C)Nc3nc(N)nc(N)c3C#N)nc3cccc(Cl)c3c2=O)ccc1C
18,8.00 to 9.00,C[C@H](Nc1nc(N)nc(N)c1C#N)c1nc2c(F)cccc2c(=O)n1-c1ccccc1
19,≥ 9.00,C[C@H](Nc1nc(N)nc(N)c1C#N)c1nc2c(F)ccc(Cl)c2c(=O)n1-c1cc(F)cc(F)c1
20,8.00 to 9.00,C[C@H](Nc1nc(N)nc(N)c1C#N)c1nc2cccc(F)c2c(=O)n1-c1cccc(C(F)(F)F)c1
21,8.00 to 9.00,C[C@H](Nc1nc(N)nc(N)c1C(N)=O)c1nc2cccc(Cl)c2c(=O)n1-c1cccc(C(F)F)c1
22,8.00 to 9.00,C[C@H](Nc1nc(N)nc(N)c1C#N)c1nc2cccc(S(C)(=O)=O)c2c(=O)n1-c1cccc(C(F)F)c1

row,pIC50,SMILES
1,8.00 to 9.00,CC[C@H](Nc1nc(N)nc(N)c1C#N)c1nc2cccc(Cl)c2c(=O)n1-c1cc(F)cc(F)c1
2,8.00 to 9.00,C[C@H](Nc1nc(N)nc(N)c1C#N)c1nc2c(C#N)cc(F)cc2c(=O)n1-c1ccccc1
3,8.00 to 9.00,C[C@H](Nc1nc(N)nc(N)c1C#N)c1nc2c(Cl)ccc(F)c2c(=O)n1-c1cc(F)cc(F)c1
4,8.00 to 9.00,C[C@H](Nc1nc(N)nc(N)c1C#N)c1nc2cccc(C#N)c2c(=O)n1-c1ccccc1
5,≥ 9.00,Cc1cccc2nc([C@H](C)Nc3nc(N)nc(N)c3C#N)n(-c3cc(F)cc(F)c3)c(=O)c12
6,7.30 to 8.00,Cc1ccc(F)c2c(=O)n(-c3cc(F)cc(C#N)c3)c([C@H](C)Nc3nc(N)nc(N)c3C#N)nc12
7,≥ 9.00,C[C@H](Nc1nc(N)nc(N)c1C#N)c1nc2cccc(Br)c2c(=O)n1-c1cccc(F)c1
8,8.00 to 9.00,CC(C)C[C@H](Nc1nc(N)nc(N)c1C#N)c1nc2cccc(Cl)c2c(=O)n1-c1cc(F)cc(F)c1
9,8.00 to 9.00,C[C@H](Nc1nc(N)nc(N)c1C#N)c1nc2c(Cl)ccc(Cl)c2c(=O)n1-c1cc(F)cc(F)c1
10,8.00 to 9.00,COc1cc(F)cc(-n2c([C@H](C)Nc3nc(N)nc(N)c3C#N)nc3cccc(Cl)c3c2=O)c1
11,8.00 to 9.00,C[C@H](Nc1nc(N)nc(N)c1C#N)c1nc2c(F)ccc(F)c2c(=O)n1-c1cccc(F)c1
12,7.30 to 8.00,C[C@H](Nc1nc(N)nc(N)c1C#N)c1nc2cccc(S(C)(=O)=O)c2c(=O)n1-c1cc(F)cc(C(F)F)c1
13,8.00 to 9.00,C[C@H](Nc1nc(N)nc(N)c1C#N)c1nc2cccc(Cl)c2c(=O)n1-c1cc(F)cc(C(F)(F)F)c1
14,≥ 9.00,C[C@H](Nc1nc(N)nc(N)c1C#N)c1nc2c(Cl)ccc(Cl)c2c(=O)n1-c1ccccc1
15,7.30 to 8.00,CC[C@H](Nc1nc(N)nc(N)c1C#N)c1nc2c(Cl)cccc2c(=O)n1-c1cc(F)cc(F)c1
16,8.00 to 9.00,C[C@H](Nc1nc(N)nc(N)c1C#N)c1nc2cccc(C(F)F)c2c(=O)n1-c1cccc(C#N)c1
17,8.00 to 9.00,COC[C@@H](Nc1nc(N)nc(N)c1C#N)c1nc2cccc(Cl)c2c(=O)n1-c1cc(F)cc(F)c1
18,≥ 9.00,C[C@H](Nc1nc(N)nc(N)c1C#N)c1cc2cccc(Cl)c2c(=O)n1-c1ccccc1
19,8.00 to 9.00,C[C@H](Nc1nc(N)nc(N)c1C#N)c1nc2c(Cl)cccc2c(=O)n1-c1cc(F)cc(F)c1
20,8.00 to 9.00,C[C@H](Nc1nc(N)nc(N)c1C#N)c1nc2cccc(C(N)=O)c2c(=O)n1-c1ccccc1
21,≥ 9.00,COc1cccc(-n2c([C@H](C)Nc3nc(N)nc(N)c3C#N)nc3cccc(Cl)c3c2=O)c1
22,7.30 to 8.00,CC[C@H](Nc1nc(N)nc(N)c1C#N)c1nc2c(C)ccc(F)c2c(=O)n1-c1cc(F)cc(F)c1

row,pIC50,SMILES
1,8.00 to 9.00,C[C@H](Nc1nc(N)nc(N)c1C#N)c1nc2cccc(Cl)c2c(=O)n1-c1cc(Cl)cc(Cl)c1
2,7.30 to 8.00,C[C@H](Nc1nc(N)nc(N)c1C#N)c1nc2ccc(F)cc2c(=O)n1-c1cccc(C#N)c1
3,8.00 to 9.00,C[C@H](Nc1nc(N)nc(N)c1C#N)c1nc2ccc(F)cc2c(=O)n1-c1cc(F)cc(F)c1
4,8.00 to 9.00,C[C@H](Nc1nc(N)nc(N)c1C#N)c1nc2ccc(F)cc2c(=O)n1-c1cccc(Cl)c1
5,7.30 to 8.00,C[C@H](Nc1nc(N)nc(N)c1C#N)c1nc2c(F)ccc(C#N)c2c(=O)n1-c1cc(F)cc(F)c1
6,8.00 to 9.00,C[C@H](Nc1nc(N)nc(N)c1C(N)=O)c1nc2cccc(Cl)c2c(=O)n1-c1cc(F)cc(F)c1
7,8.00 to 9.00,C[C@H](Nc1nc(N)nc(N)c1C#N)c1nc2cccc(F)c2c(=O)n1-c1cc(F)cc(F)c1
8,8.00 to 9.00,CC[C@H](C)[C@H](Nc1nc(N)nc(N)c1C#N)c1nc2cccc(Cl)c2c(=O)n1-c1cc(F)cc(F)c1
9,7.30 to 8.00,C[C@H](Nc1nc(N)nc(N)c1C#N)c1nc2ccc(F)c(Cl)c2c(=O)n1-c1cccc(C#N)c1
10,≥ 9.00,C[C@H](Nc1nc(N)nc(N)c1C#N)c1nc2cccc(Cl)c2c(=O)n1-c1cc(F)cc(F)c1
11,8.00 to 9.00,C[C@H](Nc1nc(N)nc(N)c1C#N)c1nc2cccc(F)c2c(=O)n1-c1cccc(C(F)F)c1
12,8.00 to 9.00,CC[C@H](Nc1nc(N)nc(N)c1C#N)c1nc2c(F)ccc(F)c2c(=O)n1-c1cccc(F)c1
13,8.00 to 9.00,C[C@H](Nc1nc(N)nc(N)c1C#N)c1nc2cccc(S(C)(=O)=O)c2c(=O)n1-c1c(F)cccc1F
14,8.00 to 9.00,COc1cc(-n2c([C@H](C)Nc3nc(N)nc(N)c3C#N)nc3cccc(Cl)c3c2=O)ccc1F
15,7.30 to 8.00,C[C@H](Nc1nc(N)nc(N)c1C#N)c1nc2cccc(F)c2c(=O)n1-c1cc(F)cc(Cl)c1
16,7.30 to 8.00,CC[C@H](Nc1nc(N)nc(N)c1C#N)c1nc2c(Cl)ccc(F)c2c(=O)n1-c1cc(F)cc(F)c1
17,≥ 9.00,C[C@H](Nc1nc(N)nc(N)c1C#N)c1nc2cccc(Cl)c2c(=O)n1-c1cccc(Cl)c1
18,8.00 to 9.00,Cc1cccc2c(=O)n(-c3cc(F)cc(F)c3)c([C@H](C)Nc3nc(N)nc(N)c3C#N)nc12
19,8.00 to 9.00,CC[C@H](Nc1nc(N)nc(N)c1C#N)c1nc2c(F)cccc2c(=O)n1-c1cc(F)cc(F)c1
